According to patent publication US7928099B2, “Pyrimido [4,5-D] azepine derivatives as 5-HT2c agonists” (Pfizer Inc, priority 2007, dated 2011):

Target: T1, human recombinant 5-HT2c receptor (Homo sapiens, UniProt P28335)
T1 construct: expressed in transfected cells; host or cells: CHO K1 (Chinese hamster ovary), stably transfected
T1 sequence (P28335 33-458): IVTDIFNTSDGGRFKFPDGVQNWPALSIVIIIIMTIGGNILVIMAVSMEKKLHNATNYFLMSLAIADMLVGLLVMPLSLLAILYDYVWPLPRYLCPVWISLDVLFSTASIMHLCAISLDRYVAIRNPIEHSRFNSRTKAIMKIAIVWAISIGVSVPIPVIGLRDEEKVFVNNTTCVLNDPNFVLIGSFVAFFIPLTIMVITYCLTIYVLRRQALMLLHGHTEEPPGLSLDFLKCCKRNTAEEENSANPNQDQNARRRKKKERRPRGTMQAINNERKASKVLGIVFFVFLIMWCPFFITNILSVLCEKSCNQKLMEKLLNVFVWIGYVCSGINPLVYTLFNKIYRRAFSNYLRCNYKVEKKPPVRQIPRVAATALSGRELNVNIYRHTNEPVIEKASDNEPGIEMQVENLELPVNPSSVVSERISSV
Experiment: FLIPR fluorescent Ca2+ mobilisation agonist assay in CHO K1 cells (Method 1)
Format: cell-based
Settings: for Emax: percentage of mean maximal response to 10 μM 5-HT; for EC50: agonist affinity, FLIPR
Protocol: The compounds of the invention were evaluated for biological activity by measuring the agonist affinity (EC50) and efficacy (Emax) at the human recombinant 5-HT2c receptor expressed in CHO K1 cells, using a fluorescent based Ca^2+ mobilisation assay format compatible with FLIPR technology (Method 1). Additionally, the binding activity of a compound was determined by measuring its affinity for the human recombinant 5-HT2c receptor membranes from Swiss 3T3 cells (Method 2).
The agonist affinity of the compounds were tested by measuring their ability to induce a fluorescent based Ca^2+ mobilization signal in a FLIPR assay using CHO K1 cells expressing recombinant human 5-HT2C receptor. Both agonist affinity (EC50) and efficacy (Emax) were determined.
Chinese hamster ovary cells (CHO K1) stably transfected with the 5-HT2c receptor were cultured under standard cell culture techniques. Specifically, cells were grown at 37° C. and 5% CO2 in Dulbecco's Modified Eagle's Medium (DMEM) culture media supplemented with 10% dialysed foetal calf serum (FCS), 1% non-essential amino acids, 1 mM sodium pyruvate, 800 μg/mL geneticin and 50 μg/ml zeocin. Cells were harvested for passaging and storage using trypsin-EDTA, centrifugation and resuspension in culture medium. Cells were grown to 60-80% confluency, harvested and adjusted to 15-20×10^6 cells/ml/vial in medium/10% DMSO and stored long-term at −80° C.
Cells were seeded into black-walled clear-bottomed 384 well plates 24 h before use. Frozen cells were defrosted in a 37° C. water bath and immediately transferred into 1 mL/vial 37° C. culture medium, diluted to 10 ml and DMSO removed by centrifugation. The cells were resuspended in 15 ml/vial of cell culture medium, counted and adjusted to give 500,000 cells/mL (10,000 cells/well). […] of cell suspension was added to the 384 well plates which were then incubated overnight at 37° C.
The maximum agonist response was determined with 5-HT at a final assay concentration of 10 μM in the diluent above. The minimum response was determined with Dulbeccos PBS (+CaCl2, +MgCl2) with 0.9% DMSO and 0.05% pluronic F-127. Test compounds, maximum and minimum controls were added to a 384 well polypropylene plate.
The FLIPR calcium assay reagent was diluted with assay buffer (Hank's Balanced Salt Solution (HBSS))/20 mM HEPES and 2.5 mM probenecid (diluted with 1M Sodium hydroxide and DPBS (+CaCl2, +MgCl2)).
20 μl/well FLIPR calcium assay reagent was added to the cell plates, which were incubated for 1 h at 37° C. Cell plates and compound plates were then transferred onto the FLIPR. The assay was run using the appropriate FLIPR program, which initiates the reaction by transferring 15 μL compound into the corresponding, well of the cell plate.
The statistical parameter exported from each well was the max peak height of the response.

| SMILES | Emax (CHO-K1, efficacy) | EC50 | Emax (efficacy) |
| --- | --- | --- | --- |
| CNc1nc(C(C)c2ccccc2)nc2c1CCNCC2 (centres unmarked) [Example 3, N-methyl-2-(1-phenylethyl)-6,7,8,9-tetrahydro-5H-pyrimido[4,5-d]azepin-4-amine] |  |  | 60.8% |
| Clc1ccc(Cc2ncc3c(n2)CCNCC3)cc1 [Example 57, 2-(4-Chlorobenzyl)-6,7,8,9-tetrahydro-5H-pyrimido[4,5-d]azepine] | 64.7% | 192 nM |  |
| CC(C)COc1nc(Cc2ccccc2)nc2c1CCNCC2 [Example 76, 2-benzyl-4-isobutoxy-6,7,8,9-tetrahydro-5H-pyrimido[4,5-d]azepine] | 34% | 127 nM |  |
| CC(C)(C)OCCOc1nc(Cc2ccccc2)nc2c1CCNCC2 [Example 81, 2-benzyl-4-(2-tert-butoxyethoxy)-6,7,8,9-tetrahydro-5H-pyrimido[4,5-d]azepine] | 60.3% | 195 nM |  |
| FC(F)(F)CCCOc1nc(Cc2ccccc2)nc2c1CCNCC2 [Example 84, 2-benzyl-4-(4,4,4-trifluorobutoxy)-6,7,8,9-tetrahydro-5H-pyrimido[4,5-d]azepine] | 36.4% | 395 nM |  |
| CCCCNc1nc(N2CCSCC2)nc2c1CCNCC2 [Example 89, N-butyl-2-thiomorpholin-4-yl-6,7,8,9-tetrahydro-5H-pyrimido[4,5-d]-azepin-4-amine] | 48.2% | 33.6 nM |  |
| CCN(C)c1nc(N2CCSCC2)nc2c1CCNCC2 [Example 92, N-ethyl-N-methyl-2-thiomorpholin-4-yl-6,7,8,9-tetrahydro-5H-pyrimido-[4,5-d]azepin-4-amine] | 77.3% | 90 nM |  |
| CNc1nc(N2CCSCC2)nc2c1CCNCC2 [Example 93, N-methyl-2-thio-morpholin-4-yl-6,7,8,9-tetrahydro-5H-pyrimido-[4,5-d]azepin-4-amine] | 77% | 11.5 nM |  |
| C1Cc2nc(N3CCSCC3)nc(N3CCSCC3)c2CCN1 [Example 94, 2,4-dithiomorpholin-4-yl-6,7,8,9-tetrahydro-5H-pyrimido[4,5-d]azepine] | 80.8% | 261 nM |  |
| C1Cc2nc(N3CCOCC3)nc(N3CCSCC3)c2CCN1 [Example 96, 2-morpholin-4-yl-4-thio-morpholin-4-yl-6,7,8,9-tetrahydro-5H-pyrimido-[4,5-d]azepin-4-amine] | 66.9% | 311 nM |  |
| CCN(C)c1nc2c(c(NCC3CC3)n1)CCNCC2 [Example 99, N-4-(cyclopropylmethyl)-N-2-ethyl-N-2-methyl-6,7,8,9-tetrahydro-5H-pyrimido[4,5-d]azepin-4-amine] | 69.5% | 103 nM |  |
| CCN(C)c1nc2c(c(N(C)C)n1)CCNCC2 [Example 100, N-2-ethyl-N-2,N-4,N-4-trimethyl-6,7,8,9-tetra-hydro-5H-pyrimido-[4,5-d]azepine-2,4-diamine] | 51.2% | 122 nM |  |

The next lines start with results.

| Emax (CHO-K1, efficacy) | EC50 | SMILES | Emax (efficacy) |
| --- | --- | --- | --- |
| 65.1% | 194 nM | Fc1ccccc1Cc1ncc2c(n1)CCNCC2 [Example 60, 2(2-Fluorobenzyl)-6,7,8,9-tetrahydro-5H-pyrimido[4,5-d]azepine] |  |
| 67.1% | 125 nM | Fc1cccc(Cc2ncc3c(n2)CCNCC3)c1 [Example 61, 2-(3-Fluorobenzyl)-6,7,8,9-tetrahydro-5H-pyrimido[4,5-d]azepine] |  |
| 63.1% | 100 nM | Cc1ccc(Cc2ncc3c(n2)CCNCC3)cc1 [Example 64, 2-(4-Methylbenzyl)-6,7,8,9-tetrahydro-5H-pyrimido[4,5-d]azepine] |  |
| 83.3% | 8.61 nM | c1ccc(Cc2nc3c(c(OCCc4ccccn4)n2)CCNCC3)cc1 [Example 73, 2-benzyl-4-(2-pyridin-2-ylethoxy)-6,7,8,9-tetrahydro-5H-pyrimido[4,5-d]azepine] |  |
| 86.7% | 17.1 nM | c1ccc(Cc2nc3c(c(OCC4CCCO4)n2)CCNCC3)cc1 (centres unmarked) [Example 74, 2-benzyl-4-(2-tetra-hydrofuran-2-ylmethoxy)-6,7,8,9-tetrahydro-5H-pyrimido[4,5-d]azepine] |  |
| 90.1% | 58.1 nM | N#Cc1ccc(CCOc2nc(Cc3ccccc3)nc3c2CCNCC3)cc1 [Example 75, 4-{2-[(2-benzyl-6,7,8,9-tetrahydro-5H-pyrimido-[4,5-d]azepin-4-yl)oxy]ethyl}-benzonitrile] |  |
| 70.3% | 130 nM | Cc1ncccc1COc1nc(Cc2ccccc2)nc2c1CCNCC2 [Example 77, 2-benzyl-4-[(2-methyl-pyridin-3-yl)methoxy]-6,7,8,9-tetrahydro-5H-pyrimido[4,5-d]azepine] |  |
| 69.5% | 138 nM | CN1CCC[C@H]1COc1nc(Cc2ccccc2)nc2c1CCNCC2 [Example 78, 2-benzyl-4-{[(2S)-1-methylpyrrolidin-2-yl]methoxy}-6,7,8,9-tetrahydro-5H-pyrimido[4,5-d]azepine] |  |
| 67.3% | 154 nM | c1ccc(Cc2nc3c(c(OCCc4ccncc4)n2)CCNCC3)cc1 [Example 79, 2-benzyl-4-(2-pyridin-4-ylethoxy)-6,7,8,9-tetrahydro-5H-pyrimido[4,5-d]azepine] |  |
| 74.2% | 184 nM | c1ccc(Cc2nc3c(c(OCC4CCOCC4)n2)CCNCC3)cc1 [Example 80, 2-benzyl-4-(tetrahydro-2H-pyran-4-ylmethoxy)-6,7,8,9-tetrahydro-5H-pyrimido[4,5-d]azepine] |  |
| 71.9% | 304 nM | CC(CN1CCOCC1)Oc1nc(Cc2ccccc2)nc2c1CCNCC2 (centres unmarked) [Example 82, 2-benzyl-4-(1-methyl-2-morpholin-4-ylethoxy)-6,7,8,9-tetrahydro-5H-pyrimido[4,5-d]azepine] |  |
| 45.7% | 338 nM | CC(COc1nc(Cc2ccccc2)nc2c1CCNCC2)N(C)C (centres unmarked) [Example 83, 1-[(2-benzyl-6,7,8,9-tetrahydro-5H-pyrimido-[4,5-d]azepin-4-yl)oxy]-N,N-dimethylpropan-2-amine] |  |
| 86.3% | 421 nM | CN1CCC(COc2nc(Cc3ccccc3)nc3c2CCNCC3)CC1 [Example 85, 2-benzyl-4-[(1-methyl-piperidin-4-yl)methoxy]-6,7,8,9-tetrahydro-5H-pyrimido[4,5-d]azepine] |  |
| 57.1% | 48.3 nM | CCNc1nc(N2CCc3ccccc3C2)nc2c1CCNCC2 [Example 87, 2-(3,4-dihydroisoquinolin-2(1H)-yl)-N-ethyl-6,7,8,9-tetrahydro-5H-pyrimido-[4,5-d]azepin-4-amine] |  |
| 67.6% | 838 nM | c1ccc2c(c1)CCN(c1nc3c(c(N4CCSCC4)n1)CCNCC3)C2 [Example 88, 2-(3,4-dihydroisoquinolin-2(1H)-yl)-4-thiomorpholin-4-yl-6,7,8,9-tetrahydro-5H-pyrimido[4,5-d]-azepin-4-amine] |  |
| 69.6% | 186 nM | c1ccc(CCNc2nc(N3CCSCC3)nc3c2CCNCC3)cc1 [Example 91, N-(2-phenylethyl)-2-thiomorpholin-4-yl-6,7,8,9-tetrahydro-5H-pyrimido-[4,5-d]azepin-4-amine] |  |
| 88.4% | 229 nM | CCN(C)c1nc(N2CCOCC2)nc2c1CCNCC2 [Example 95, N-ethyl-N-methyl-2-morpholin-4-yl-6,7,8,9-tetrahydro-5H-pyrimido-[4,5-d]azepin-4-amine] |  |
| 84.6% | 67.6 nM | CN(C)c1nc(N2CCOCC2)nc2c1CCNCC2 [Example 97, N,N-dimethyl-2-morpholin-4-yl-6,7,8,9-tetrahydro-5H-pyrimido-[4,5-d]azepin-4-amine] |  |
